For the assay, the target named is T1, Novosphingobium aromaticivorans ketoreductase (NaKRED) mutant Y199A/N149L (parent SEQ ID NO. 2) (Novosphingobium aromaticivorans, UniProt A4XEP2, E216K/G141A/I221V/N149L/Y199A).
T1 construct: substrate 1a with NADH
T1 sequence (A4XEP2 1-259 E216K/G141A/I221V/N149L/Y199A): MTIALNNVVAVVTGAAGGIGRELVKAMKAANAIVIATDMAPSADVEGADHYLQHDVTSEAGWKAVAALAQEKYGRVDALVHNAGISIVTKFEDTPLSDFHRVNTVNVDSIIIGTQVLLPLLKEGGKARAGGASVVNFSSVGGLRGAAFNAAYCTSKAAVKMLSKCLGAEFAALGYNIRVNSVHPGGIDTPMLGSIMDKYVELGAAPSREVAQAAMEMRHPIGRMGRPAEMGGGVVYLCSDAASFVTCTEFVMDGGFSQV
The assay can be described thus: Enzyme activity assay of purified Y199A/N149L mutant (change in absorbance at 340 nm, NADH). The class given is biochemical. As to conditions: role: substrate; 0.5 mM substrate 1a; 1 mM NADH; 0.5 μM purified enzyme; 100 mM PBS pH 7.2. The method, then: The collected wet cells were resuspended in a reaction buffer in a ratio of 1 g wet cells to 15 mL of reaction buffer. The cells were lysed by ultrasonication in an ice bath using cycles of turn-on for 1 s and turn-off for 2 s for a total duration of 45 min. The lysate was centrifuged at 12,000 rpm and 4 °C for 15 min, and the supernatant was filtered through a 0.22 μm membrane for subsequent purification. The purification was performed by Ni-NTA affinity chromatography using a 5 mL of pre-packed column. The entire purification system was first equilibrated with an equilibration buffer, and the sample was loaded at a flow rate of 1 mL/min. Unbound impurity proteins were further removed with the equilibration buffer, and gradient elution was performed by using an elution buffer (500 mM NaCl, and 500 mM imidazole). A target protein was eluted at approximately 150 mM imidazole. The target protein was collected, and concentrated and desalted by using an ultrafiltration tube (50 kDa cutoff) to a final volume of 1 mL. A protein solution was aliquoted and stored at −80 °C for further use.
Therefore, the activity of the mutant was evaluated by monitoring the change in absorbance at 340 nm during the reaction. […] The change in absorbance was monitored over 5 min. […] A sample was prepared by filtration through a 0.22 μm membrane, and the formation of product was detected by HPLC.

Each structure is given as a SMILES string.

Consider `CC(C)C(=O)CC[C@@H](C)[C@H]1CCC2C3C(CC[C@@]21C)[C@@]1(C)CC[C@@H](O)C[C@@H]1C[C@H]3O` (stereo partly shown) [1a], for which the TON is recorded as 438 ± 2.9.

For the origin of these results see US20260375151A1, “KETOREDUCTASE MUTANT AND USE THEREOF” (SOUTH CHINA UNIVERSITY OF TECHNOLOGY, priority 2023, published 2026).
